Measurements: ChEMBL document CHEMBL1127218, “Synthesis, anti-human immunodeficiency virus, and anti-hepatitis B virus activity of pyrimidine oxathiolane nucleosides” (Bioorg Med Chem Lett, 1993)

What was measured:
[1] = Compound was tested for its anti-HIV activity against HIV-1 LAI in human peripheral blood mononuclear (PBM) cells; format: functional
[2] = system: MT4; test: Compound was tested for its anti-HIV activity in acutely infected MT-4 cells; format: functional, cell-based; conditions: Homo sapiens
[3] = system: Vero; test: Compound was tested for its cytotoxic activity in uninfected Vero cells; format: functional, cell-based; conditions: Chlorocebus sabaeus
[4] = Compound was tested for its cytotoxic activity in uninfected human peripheral blood mononuclear (PBM) cells; format: functional
[5] = system: HepG2; test: Percent inhibition for its anti-HBV activity in infected HepG2(2.2.15) cells at concentration of 1 uM; format: functional; conditions: Homo sapiens
[6] = system: HepG2; test: Percent inhibition for its anti-HBV activity in infected HepG2(2.2.15) cells at concentration of 25 uM; format: functional; conditions: Homo sapiens

EC50 [1] | SMILES | EC50 [2] | IC50 [3] | IC50 [4] | inhibition at 1 µM [5] | inhibition at 25 µM [6]
0.06 µM | Nc1ccn([C@@H]2CS[C@H](CO)O2)c(=O)n1 [LAMIVUDINE] | 7 µM | > 100 µM | > 100 µM | 87% | –
2.4 µM | Nc1nc(=O)n([C@H]2CS[C@@H](CO)O2)cc1Br | > 200 µM | > 100 µM | > 100 µM | – | 84%
0.72 µM | Nc1nc(=O)n([C@H]2CS[C@@H](CO)O2)cc1I | > 200 µM | > 100 µM | > 100 µM | – | 55%
> 100 µM | Cc1cn([C@H]2CS[C@@H](CO)O2)c(=O)nc1N | > 200 µM | > 100 µM | > 100 µM | – | 0%
38.7 µM | Nc1nc(=O)n([C@H]2CS[C@@H](CO)O2)cc1Cl | > 200 µM | > 100 µM | > 100 µM | – | 58%

Further lines, the molecule ahead of its results:

SMILES | EC50 [1] | EC50 [2] | IC50 [3] | IC50 [4] | inhibition at 1 µM [5] | inhibition at 25 µM [6]
Cc1cn([C@H]2CS[C@@H](CO)O2)c(=O)[nH]c1=O | 64.4 µM | > 200 µM | > 100 µM | > 100 µM | – | 0%
Nc1nc(=O)n([C@H]2CS[C@@H](CO)O2)cc1F | 0.01 µM | 2.1 µM | > 100 µM | > 100 µM | 90% | –
O=c1[nH]c(=O)n([C@H]2CS[C@@H](CO)O2)cc1Cl | 60.8 µM | > 200 µM | > 100 µM | > 100 µM | – | 59%
O=c1[nH]c(=O)n([C@H]2CS[C@@H](CO)O2)cc1F | > 100 µM | > 200 µM | > 100 µM | > 100 µM | – | 75%
O=c1[nH]c(=O)n([C@H]2CS[C@@H](CO)O2)cc1I | > 100 µM | > 200 µM | > 100 µM | > 100 µM | – | 0%
O=c1ccn([C@H]2CS[C@@H](CO)O2)c(=O)[nH]1 | > 100 µM | > 200 µM | > 100 µM | > 100 µM | – | 0%
O=c1[nH]c(=O)n([C@H]2CS[C@@H](CO)O2)cc1Br | > 100 µM | > 200 µM | > 100 µM | > 100 µM | – | 11%
